Several values for one entry are separate records, joined by “and”; a condition that tells them apart may be missing. Equal entries are not always repeated.
How the values were obtained:
[1] = tested on: GK rats; assay: GK rat chronic efficacy (28 days: glucose, food intake, body weight, GLP-1, GIP, PYY, insulin, glucagon); type: in vivo; settings: 30 mpk; for Fasted glucose on day 28 (Fig 3B): day 28, fasted, individual animals
Description: At the start of the study, fed (ambient) blood glucose was measured via glucometer at 1 h post lights on, and animals were selected and sorted into treatment groups based on ambient glucose (n = 10/ GK group, n = 6 WKY control). Blood for baseline incretin measurements was collected in the PM via tail vein. Rats were dosed via oral gavage (PO) at a volume of 5 ml/kg daily at approximately 12:30 PM with either vehicle (0.5% methylcellulose), AP1 at 30 mg/kg, or AP3 at 30 mg/kg. MK-8666, a GPR40 partial agonist synthesized at Merck & Co., Inc., Kenilworth, NJ USA [13], at 30 mg/kg was administered in feed (Research Diets, New Brunswick, NJ) and provided ad lib. All compounds were administered to achieve maximal efficacious exposures determined in acute efficacy studies similar to those acute studies described above. In brief, partial agonists and AgoPAMs were titrated in the acute GK rat experiment described above and the exposure associated with maximal efficacy in glucose lowering was noted. Partial agonists and AgoPAMs were then dosed to maintain those exposures up to 24h post dose. […] Rats from this group and the WKY controls were administered vehicle PO when the vehicle, AP1, and AP3 groups were treated. Fed blood glucose, food intake, and body weights were determined on days 10, 17, 23, and 28 of study at 2 h post lights on. Immediately after these measures were taken on days 10, 17, 23, and 28, food was removed. After 5h of fasting, animals were dosed with vehicle or compound and allowed to rest for an additional hour. Glucose, GLP-1, GIP, and PYY were measured after 6h of fasting at 1 hr post dose. Fed blood glucose is described by animals having had ad libidum access to feed up till the time of sampling and occurred at 2h post-lights on where rats were nearing the end of their nocturnal feeding cycle. Fasted blood glucose is described by blood glucose sampled after 6h of fasting where food was removed at 2h post lights on. Please note that the fasted sample was taken 1h post oral dosing. On day 10, blood was collected from the tail vein (20 μl) after morning glucose measures and after 6 hour fast from a subset of n = 3 rats per treatment group to determine the fed and fasted exposure of the compounds in circulation. The blood was stored at 4°C in 0.1 M sodium citrate for subsequent analysis of drug exposure.
Blood for insulin, glucagon, GLP-1, GIP, and PYY measurements was collected into K2EDTA Microtainer tubes (BD, Franklin Lakes, NJ) pre-treated with DPP4 inhibitor (Millipore, Billerica, MA) and cOmplete™ Protease Inhibitor Cocktail Tablets (Roche Diagnostics, Indianapolis, IN). Tubes were centrifuged for 10 minutes at 5000 RPM, and plasma was aliquotted for analysis. Plasma insulin levels were measured via EIA (Mesoscale Discovery ELISA Kit, Gaithersburg MD). Rat plasma total GLP-1 was measured using Total GLP-1 (ver.2) Assay Kit (Cat#: K150JVC). The measurement of active GLP-1 was carried out in a similar manner as that described for total GLP-1 assay with the exception that MSD Active GLP-1 (ver. 2) assay kit (Cat# K150JWC) was used. Rat plasma glucagon was measured using an in-house glucagon assay developed as a MSD format sandwich immunoassay (Merck & Co., Inc., MRL, Kenilworth, NJ USA). The antibody specificity was cross validated via mass- spec using procedures described in Lee et al. Briefly, MSD Streptavidin Gold plates were coated with 2 μg/ml biotin mouse monoclonal antibody generated to glucagon. Test samples were added to the plates and a separate Sulfo- tagged monoclonal antibody was used to detect the captured glucagon protein (2 μg/ml). The ELISA was carried out in the standard reagents in the MSD format. The plate was read on the SECTOR Imager 6000 Reader. Metabolic hormones GIP (Gastric Inhibitory Polypeptide) and PYY (Peptide YY) were measured in rat plasma using the Rat Metabolic Magnetic Bead Panel (EMD Millipore, Billerica, MA). The assay was performed according to manufacturer protocol. […]

[2] = tested on: GK rats; assay: Endogenous glucose production in vivo (2H/13C dual tracer); design: species or system rat; settings: GK rats, 30 mpk, individual animal values (data for Fig 8); 30 mg/kg;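 as to Glucose production, EGP Total: micromoles per kg body weight per minute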;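 as to Glucose production, Glycerol: absolute flux in micromoles per kg per minute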;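 as to Glucose production, Glycogen: absolute flux in micromoles per kg per minute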;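 as to Glucose production, TCA: absolute flux in micromoles per kg per minute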
Description: To evaluate the effects of the GPR40 partial and AgoPAM compounds on EGP in vivo, a 2H/13C dual tracer approach was used to calculate EGP and its contributing sources. Following the chronic treatments described above, 0.9% NaCl salinated deuterium oxide (D2O, Sigma-Aldrich, St. Louis, MO) was administered to all animals via intraperitoneal (IP) injection at dose volume of 20 ml/kg at 1 hr post lights on. Animals were then placed in clean cages and food was removed. After a 5 hour fast, blood glucose was measured and animals were dosed with 50 mg/kg [U-13C] glucose (Sigma-Aldrich, St. Louis, MO) IP at 5 ml/kg. Blood was collected via tail snip at time points from 60–150 min post treatment to measure blood glucose (via glucometer) as well as endogenous (12C-glucose) and exogenous (13C-glucose) via GCMS. Following the last tail blood collection, rats were anesthetized with isoflurane and cardiac blood was collected into K2EDTA tubes (Becton, Dickinson and Co., Franklin Lakes, NJ).
The serially collected blood samples were analyzed for 13C-glucose enrichment using GC-MS analysis. The % 13C glucose enrichments were then combined with the total glucose readings to calculate the concentration of 13C-glucose, and these values were modeled with a two-compartment model of whole body glucose metabolism to calculate the average EGP for the period from 0–150 minutes.
Terminal blood samples were analyzed for relative 2H enrichment in plasma glucose using the monoacetone glucose method. Briefly, samples were extracted with 70% perchloric acid at a ratio of 50 μl perchloric acid per 1 ml plasma and centrifuged at 25,000 rcf for 10 min at 4°C. The supernatant was collected and the pH was adjusted to 6–8 using aqueous KOH. The samples were then lyophilized overnight. To convert plasma glucose to monoacetone glucose (MAG), acetone and concentrated sulfuric acid were added to the lyophilized samples and stirred for 4 hours at room temperature. Water was then added and the pH adjusted to 2.0 with 3M Na2CO3. Samples were stirred moderately for 18 hours at room temperature, the pH was adjusted to 7 with 3M Na2CO3, and the samples were completely dried by speed vacuum concentration. The resulting MAG samples were then extracted in hot ethyl acetate, dried overnight under a stream of N2 gas, and purified using Discovery DSC-18 SPE columns (6 ml, 1 g bed weight). For the SPE protocol, MAG samples were reconstituted in 3 ml water and passed over the columns which were pre-washed with 2 ml methanol. The columns were rinsed twice with 1 ml water and the MAG was eluted with 5% acetonitrile. The acetonitrile eluent was then transferred to a glass scintillation vial and freeze dried. Purified MAG samples were solubilized in 180 μl 90% acetonitrile for 2H NMR analysis which was performed using the lock channel of a 950 MHz Bruker NMR spectrometer (David H Murdock Research Institute, DHMRI Kannapolis, NC). Acquisition parameters were as follows: 90° pulse, D1 = 1 s, 1H broadband decoupling, NS = 3600, acquisition time ~ 1 hr. The 2H NMR spectra of the MAG samples were then analyzed using Matlab (The Mathworks Inc, Natick, MA) to model the NMR peaks with a Lorentzian lineshape, and the results were used to calculate integrals for each of the seven NMR resonances in the MAG spectrum. Peaks 2, 5, and 6s were then used to calculate the relative sources of EGP (i.e. gluconeogenesis from TCA cycle substrates, glucose production from triose phosphates, and glycogenolysis) and these values were combined with the total EGP measurement to calculate absolute fluxes of glucose production.

| Structure (SMILES) | Glucose Over time (S2 File, Fig 2A) ([1]; Day 0, individual animals) | Glucose Over time (S2 File, Fig 2A) ([1]; Day 10, individual animals) | Glucose Over time (S2 File, Fig 2A) ([1]; Day 17, individual animals) | Glucose Over time (S2 File, Fig 2A) ([1]; Day 23, individual animals) | Glucose Over time (S2 File, Fig 2A) ([1]; Day 28, individual animals) | Fasted glucose on day 28 (Fig 3B) [1] | Glucose production, EGP Total [2] | Glucose production, Glycerol [2] | Glucose production, Glycogen [2] | Glucose production, TCA [2] |
| --- | --- | --- | --- | --- | --- | --- | --- | --- | --- | --- |
| COc1ccc(F)c(-c2ccc([C@@H]3CCc4ccc([C@H](C5CC5)[C@H](C)C(=O)O)cc4O3)cc2)c1 [L-254] | 162 mg/dL and 163 mg/dL and 174 mg/dL and 167 mg/dL and 198 mg/dL and 181 mg/dL and 193 mg/dL and 168 mg/dL and 160 mg/dL and 171 mg/dL | 111 mg/dl and 110 mg/dl (2×) and 123 mg/dl and 100 mg/dl and 101 mg/dl and 106 mg/dl and 92 mg/dl and 99 mg/dl and 95 mg/dl | 110 mg/dl and 118 mg/dl and 103 mg/dl (2×) and 138 mg/dl and 137 mg/dl and 96 mg/dl and 95 mg/dl and 124 mg/dl and 108 mg/dl | 115 mg/dl and 109 mg/dl and 125 mg/dl and 106 mg/dl and 126 mg/dl (2×) and 127 mg/dl and 107 mg/dl and 117 mg/dl and 130 mg/dl | 114 mg/dl and 98 mg/dl and 108 mg/dl and 105 mg/dl and 131 mg/dl and 113 mg/dl (2×) and 126 mg/dl and 121 mg/dl and 107 mg/dl | 104 and 87 and 118 and 99 and 111 and 114 and 95 and 92 | 61.3579 µmol/kg/min and 60.2311 µmol/kg/min and 73.9647 µmol/kg/min and 47.8618 µmol/kg/min and 64.0721 µmol/kg/min and 48.3077 µmol/kg/min and 46.8784 µmol/kg/min and 45.4367 µmol/kg/min and 55.8377 µmol/kg/min | 10.657 µmol/kg/min and 6.4047 µmol/kg/min and 5.755 µmol/kg/min and 5.519 µmol/kg/min and 3.299 µmol/kg/min and 5.985 µmol/kg/min and 2.316 µmol/kg/min | 22.6257 µmol/kg/min and 22.3444 µmol/kg/min and 14.5988 µmol/kg/min and 19.8177 µmol/kg/min and 18.6577 µmol/kg/min and 12.2721 µmol/kg/min and 17.7499 µmol/kg/min | 26.9483 µmol/kg/min and 45.2155 µmol/kg/min and 27.5078 µmol/kg/min and 38.7357 µmol/kg/min and 26.3505 µmol/kg/min and 28.6217 µmol/kg/min and 25.3709 µmol/kg/min |
| C[C@H](C(=O)O)[C@H](c1ccc2c(c1)O[C@H](C1CN(Cc3cc(C(F)(F)F)ccc3C(F)(F)F)C1)CC2)C1CC1 [L-846] | 162 mg/dL and 164 mg/dL and 165 mg/dL and 161 mg/dL and 182 mg/dL and 169 mg/dL and 204 mg/dL and 174 mg/dL and 186 mg/dL and 171 mg/dL | 98 mg/dl and 122 mg/dl and 115 mg/dl and 114 mg/dl and 99 mg/dl (2×) and 103 mg/dl and 104 mg/dl and 100 mg/dl and 85 mg/dl | 78 mg/dl and 96 mg/dl and 115 mg/dl and 110 mg/dl (2×) and 103 mg/dl and 108 mg/dl and 107 mg/dl and 101 mg/dl and 109 mg/dl | 101 mg/dL and 120 mg/dL and 118 mg/dL and 110 mg/dL and 107 mg/dL and 103 mg/dL and 114 mg/dL and 129 mg/dL and 102 mg/dL and 106 mg/dL | 112 mg/dl and 106 mg/dl and 113 mg/dl (3×) and 116 mg/dl and 101 mg/dl and 141 mg/dl and 132 mg/dl and 119 mg/dl | 104 and 110 and 84 and 100 and 96 and 87 and 101 and 99 and 103 | 61.0286 µmol/kg/min and 62.3968 µmol/kg/min and 60.5987 µmol/kg/min and 63.0498 µmol/kg/min and 58.2916 µmol/kg/min and 53.1262 µmol/kg/min and 50.1943 µmol/kg/min and 59.3349 µmol/kg/min | 5.2866 µmol/kg/min and 7.6637 µmol/kg/min and 4.613 µmol/kg/min and 10.7135 µmol/kg/min and 9.19 µmol/kg/min and 7.224 µmol/kg/min and 6.179 µmol/kg/min and 7.862 µmol/kg/min | 22.4627 µmol/kg/min and 29.4039 µmol/kg/min and 20.4093 µmol/kg/min and 17.187 µmol/kg/min and 19.1242 µmol/kg/min and 17.4656 µmol/kg/min and 16.9199 µmol/kg/min and 18.0022 µmol/kg/min | 33.2793 µmol/kg/min and 25.3292 µmol/kg/min and 35.5765 µmol/kg/min and 35.1493 µmol/kg/min and 29.9769 µmol/kg/min and 28.4363 µmol/kg/min and 27.0955 µmol/kg/min and 33.4708 µmol/kg/min |

Source: PMC5650142, “GPR40 partial agonists and AgoPAMs: Differentiating effects on glucose and hormonal secretions in the rodent” (PLoS ONE, 2017)
